The values below are quoted from earlier work in patent publication US6403361B1, “Enzymatic method for modification of recombinant polypeptides” (Restoragen, Inc., priority 1993, dated 2002).

Data set [1] deals with T1, Adenosine deaminase (Homo sapiens, UniProt P00813).
T1 sequence (P00813 1-363): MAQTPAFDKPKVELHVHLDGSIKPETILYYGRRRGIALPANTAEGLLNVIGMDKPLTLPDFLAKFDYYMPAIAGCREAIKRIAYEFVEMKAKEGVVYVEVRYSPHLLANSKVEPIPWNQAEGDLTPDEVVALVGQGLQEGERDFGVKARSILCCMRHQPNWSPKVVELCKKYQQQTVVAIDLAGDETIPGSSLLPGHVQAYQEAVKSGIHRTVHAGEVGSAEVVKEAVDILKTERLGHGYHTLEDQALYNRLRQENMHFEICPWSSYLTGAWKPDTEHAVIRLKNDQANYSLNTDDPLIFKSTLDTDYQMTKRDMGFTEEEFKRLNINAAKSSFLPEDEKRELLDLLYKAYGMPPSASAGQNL
The settings on record: E is times ten to the negative exponent.

Data set [2] addresses T2, Cholesterol esterase (Homo sapiens, UniProt P19835).
T2 sequence (P19835 21-753): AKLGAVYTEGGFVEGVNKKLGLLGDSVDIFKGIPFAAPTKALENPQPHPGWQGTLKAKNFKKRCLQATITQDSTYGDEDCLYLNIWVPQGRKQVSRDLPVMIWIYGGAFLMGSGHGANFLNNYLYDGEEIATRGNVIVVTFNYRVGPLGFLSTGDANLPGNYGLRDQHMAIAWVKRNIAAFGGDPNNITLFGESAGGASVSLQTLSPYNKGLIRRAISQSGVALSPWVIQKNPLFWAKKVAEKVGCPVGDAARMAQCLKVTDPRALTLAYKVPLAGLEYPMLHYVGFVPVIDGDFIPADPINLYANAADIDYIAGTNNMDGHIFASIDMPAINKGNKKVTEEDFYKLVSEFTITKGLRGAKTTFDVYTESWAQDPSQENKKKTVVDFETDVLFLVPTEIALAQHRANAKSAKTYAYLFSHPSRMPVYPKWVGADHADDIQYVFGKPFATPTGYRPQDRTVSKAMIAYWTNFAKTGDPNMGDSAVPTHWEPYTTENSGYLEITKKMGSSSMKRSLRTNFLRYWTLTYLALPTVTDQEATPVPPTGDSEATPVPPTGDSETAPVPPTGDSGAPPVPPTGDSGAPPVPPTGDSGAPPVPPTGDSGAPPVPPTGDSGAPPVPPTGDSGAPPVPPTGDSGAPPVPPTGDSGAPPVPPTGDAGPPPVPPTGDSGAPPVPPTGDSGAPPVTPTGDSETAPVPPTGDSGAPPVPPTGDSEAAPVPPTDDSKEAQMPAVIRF
The following applies: Ref. 8 (Sutton et al., BBRC, 134, 386-392 (1986)); E is times ten to the negative exponent.

Read-outs that look alike come from different tables or passages of the source.

With `OC[C@H]1O[C@@H](n2cnc3c2N=CNC[C@H]3O)[C@H](O)[C@@H]1O` [Coformycin], the Kd in data set [1] (Ref. 1 (Cha et al., Biochemical Pharm., 24, 2187-2197)) is < 0.12 nM. Consider `CCCCCCC(C(C)O)n1cnc2c(N)ncnc21` (stereo not drawn) [erythro-9-(2-hydroxy-3 nonyl) adenine], for which, in data set [1] (Ref. 2 (Agarwal et al., Biochemical Pharm., 26, 354-367 (1977))), the Kd is 1.6 nM. On to Borinic acid, for which the equilibrium dissociation constant (Kd) in data set [2] was 0.1 nM.

By Kd is commonly meant a measure of binding affinity in units of concentration.
